Legend:
[1] = Table Lamp Light Exposure Test (TLE), discoloration; type: physicochemical; conditions: gel with glycerol 10%, clay 4%, silver 0.054% weight; for Gel color after continuous light exposure: After 24 h: 60 W table lamp; for Gel color after continuous light exposure: Fresh: 60 W table lamp at 1 to 1.5 feet
Description: (a) Table Lamp Light Exposure Test (TLE) • The samples of the said compositions contained in either glass vials or 15 ml PP tubes (BD Falcon) were placed under a table lamp (turned on) at a distance of 12 to 15 inches for continuous exposure. The incandescent lamp wattage was 60 W. After the desired duration of exposure, the test samples were examined for visible discoloration by holding it against a white plain paper. Non-hydrogel samples were examined against the control samples protected from light.

rats = conditions: cited from earlier work
[2] = Steam sterilization (thermal stability, discoloration); type: physicochemical; conditions: hydrogel
Description: (b) Steam Sterilization • One steam sterilization cycle was imposed on gel prototypes to evaluate their ability to withstand elevated temperatures. The gel samples contained in 15 ml or 50 ml PP tubes or other non-hydrogel prototypes (in sealed foil pouches) were examined post sterilization for any adverse temperature effect on its color, viscosity, texture, phase separation etc.
A majority of the hydrogel prototypes of the present disclosure were tested for their ability to withstand elevated temperatures simply by subjecting them to one steam sterilization cycle. The test samples experienced temperature rises from 20 C to 122 C over 15 min, followed by constant temperature of 122 C for 15 min and finally a cool down from 122 C to ˜40 C over 3 h. Thus, the test samples experienced nearly 3.5 h of hostile temperature condition.
“Steam sterilizable” or “heat stable” or “inert to heat” is defined as having no visible sign of discoloration (color change following exposure that will add shade of black, brown, yellow or purple) after one steam sterilization cycle (122 C for 15 min) that includes periods of warming up and final cool down to room temperature (<40 C).

[3] = theor. silver content 110 ppm, ratio of cyanurate/silver ions 5
[4] = theor. silver content 220 ppm, ratio of cyanurate/silver ions 2.5

Row | Molecule | Gel color after continuous light exposure: After 24 h [1] | Gel color after continuous light exposure: Fresh [1] | further results
1 | C=C(CC(=O)[O-])C(=O)[O-].[Ag+].[Ag+] [Silver Itaconate] | Brown black |  | 
2 | O=C([O-])C(O)C(O)C(=O)O.[Ag+] (centres unmarked) [Silver Mono-tartrate] | Brown black | Hazy gel | 
3 | O=C([O-])/C=C\C(=O)O.[Ag+] [Silver Mono-maleate] | Brown yellow | Smooth hazy gel | 
4 | O=C(O)c1ccccc1 [benzoic acid] |  |  | LD50 (rats): 2530 mg/kg of body weight
5 | O=c1[nH]c(=O)[nH]c(=O)[nH]1 [cyanuric acid] |  |  | LD50 (rats): 7700 mg/kg of body weight; lethal dose LD50 (rats; internet source): 7.70 g/kg of body weight
6 | Silver Gluconate | Brown black |  | 
7 | Silver Benzene sulfonate | Brown black | Brown after 0.5 h | 
8 | O=C1[N-]S(=O)(=O)c2ccccc21.[Ag+] [Silver Saccharinate] |  | Yellow brown | 
9 | O=C([O-])CO.[Ag+] [Silver Glycolate] | Brown grey |  | 
10 | O=c1[n-]c(=O)[nH]c(=O)[nH]1.O=c1[n-]c(=O)[nH]c(=O)[nH]1.[Ag+].[Na+] [Na[Ag(C3N3O3H2)2], Sodium silver cyanurate ligand complex Na[Ag(C3N3H2O3)2] or its hydrate] |  |  | Color after steam sterilization [2, 3]: No discoloration; Color before steam sterilization [2, 3]: Hazy to clear; Color after steam sterilization [2, 4]: No discoloration; Color before steam sterilization [2, 4]: Hazy to clear
11 | O=C([O-])c1ccccc1.[Ag+] [Silver Benzoate] | Brown black |  | 
12 | Silver Sorbate | Brown black |  | 
13 | CCC(=O)[O-].[Ag+] [Silver Propionate] | Brown black |  | 

— US10350219B2, “Antimicrobial compositions and methods of making the same” (priority 2013, dated 2019)
